Test results published in US20220056014A1, “PHENYLPYRROLIDINE COMPOUND AND USE THEREOF” (WUHAN HUMANWELL INNOVATIVE DRUG RESEARCH AND DEVELOPMENT …, priority 2018, published 2022).

Legend:
[1] = Pharmacokinetic test in canine; type: in vivo, beagle dogs; conditions: male, beagle, dog, plasma, oral gavage 5 mg/kg
Experimental: (§1) In the rat pharmacokinetic test, 3 male SD rats (180-240 g) were fasted overnight, and orally administered with 10 mg/kg of compound to be tested. Blood was collected before the administration, and 15 min, 30 min, 1 h, 2 h, 4 h, 8 h, and 24 h hours after the administration. The blood sample was centrifuged at 8000 rpm for 6 min at 4° C., and the plasma was collected and stored at −20° C. The plasma collected at each time point was added and mixed with 3-5 times the amount of acetonitrile solution containing an internal standard, vortexed for 1 min, centrifuged at 13,000 rpm for 10 min at 4° C. The supernatant was taken and mixed with 3 times the amount of water, and an appropriate amount of the mixture was taken for LC-MS/MS analysis. The main pharmacokinetic parameters were analyzed with WinNonlin 7.0 software non-compartmental model.
(§2) In the mouse pharmacokinetic test, 9 male CD-1 mice (20-25 g) were fasted overnight, and orally administered with 10 mg/kg of the compound to be tested. Bloods of 3 mice were collected at each time point, and bloods of 9 mice were alternately collected in total. In the pharmacokinetic test in canine, 3 male beagle dogs (8-10 kg) were fasted overnight, and orally administered with 5 mg/kg of the compound to be test. In the pharmacokinetic test of cynomolgus monkeys, 3 male cynomolgus monkeys (4 to 6.5 kg) were fasted overnight, and orally administered 20 mg/kg of the compound to be test. The remaining processes are the same as those of the rat pharmacokinetic test.

[2] = test system: Mouse CIA arthritis model; test: Mouse CIA arthritis model test; type: in vivo, DBA/1 mice; conditions: 30 mg/kg oral, twice a day for 21 days; for inhibition rate based on clinical score AUC: AUC day 21 to day 42; for Clinical score (endpoint): day 42, highest score 16
Experimental: (1) Preparation of Type II Collagen/Complete Freund's Adjuvant
Preparation of acetic acid: 2N acetic acid was diluted to 100 mM, filtered with 0.22 μm filter membrane, and stored at 4° C.
Preparation of bovine type II collagen solution: bovine type II collagen (CII) was dissolved in 100 mM acetic acid solution and stored at 4° C. overnight. A final concentration of collagen was 8 mg/mL.
Preparation of emulsion: the CII solution stored overnight was mixed with an equal volume of complete Freund's adjuvant, and homogenized on ice by a high-speed homogenizer at 30,000 rpm for approximately 60 min, until the solution formed a stable emulsion.
After DBA/1 mice were anesthetized with isoflurane, 50 μl of prepared collagen emulsion (containing 200 micrograms of CII) was injected subcutaneously in the tail (2-3 cm from the base of the tail) for immunization. The day of the primary immunization was recorded as day 0, and the following days were recorded sequentially. On day 21, the same volume of collagen emulsion was injected into the tail in the same way. Mice in the normal group were not immunized.
On day 21, the mice that had been induced to have arthritis were randomly grouped according to their body weights, such that the average body weight of each group was consistent, and they were randomly divided into 6 treatment groups for administration, with 10 mice in each group.
G1 group included normal mice without being treated; G2 group was given a blank vehicle; G3 to G7 groups were administrated with the compound at a dose of 30 mg/kg, twice a day for 21 days. The volume of oral administration was 10 mL/kg.
After the enhanced immunization, the disease incidence of the mice was observed every day. When the mice began to develop symptoms (clinical symptoms of arthritis emerged), the symptoms were graded as 0 to 4 according to the different degrees of pathological changes (redness, joint deformation), where the highest score for each limb was 4, and the highest score for each animal was 16. The mice were graded at least three times a week.
The area under curve (AUC) of clinical scores of each group from day 21 to day 42 was calculated, and the inhibition rate % of the clinical score AUC of the administration group was calculated:
Inhibition rate %=1−(administration group AUC/blank vehicle group AUC)*100%
The experimental data are expressed as Mean±standard error (Mean±SEM), and the clinical scores were analyzed with One-way ANOVA, where p<0.05 was considered to be a significant difference.

[3] = Mouse pharmacokinetic test; type: in vivo, CD-1 mice; conditions: male, CD-1, plasma, oral gavage 10 mg/kg
Experimental: as §1, §2

PDE4B = biological target: T1, PDE4B (Homo sapiens, UniProt Q07343); test: PDE4B enzyme activity assay (PDE-Glo Phosphodiesterase Assay Kit); type: biochemical; conditions: for IC50 (PDE4D)/IC50 (PDE4B): selectivity ratio
T1 construct: purchased Enzo Life Sciences BML-SE522-0020
Procedure, shortened: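 Recombinant human PDE4B (1 ng/μl working solution) or PDE4D (4 ng/μl working solution) preincubated 5 min at RT with compound, then reacted 20 min with cAMP (2 μM in added solution). PDE-Glo termination/detection and Kinase-Glo steps followed; luminescence read and IC50 fitted.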

[4] = Pharmacokinetic test of cynomolgus monkeys; type: in vivo; conditions: male, plasma; cynomolgus monkey, oral gavage 20 mg/kg
Experimental: as §1, §2

T1 sequence (Q07343 whole entry): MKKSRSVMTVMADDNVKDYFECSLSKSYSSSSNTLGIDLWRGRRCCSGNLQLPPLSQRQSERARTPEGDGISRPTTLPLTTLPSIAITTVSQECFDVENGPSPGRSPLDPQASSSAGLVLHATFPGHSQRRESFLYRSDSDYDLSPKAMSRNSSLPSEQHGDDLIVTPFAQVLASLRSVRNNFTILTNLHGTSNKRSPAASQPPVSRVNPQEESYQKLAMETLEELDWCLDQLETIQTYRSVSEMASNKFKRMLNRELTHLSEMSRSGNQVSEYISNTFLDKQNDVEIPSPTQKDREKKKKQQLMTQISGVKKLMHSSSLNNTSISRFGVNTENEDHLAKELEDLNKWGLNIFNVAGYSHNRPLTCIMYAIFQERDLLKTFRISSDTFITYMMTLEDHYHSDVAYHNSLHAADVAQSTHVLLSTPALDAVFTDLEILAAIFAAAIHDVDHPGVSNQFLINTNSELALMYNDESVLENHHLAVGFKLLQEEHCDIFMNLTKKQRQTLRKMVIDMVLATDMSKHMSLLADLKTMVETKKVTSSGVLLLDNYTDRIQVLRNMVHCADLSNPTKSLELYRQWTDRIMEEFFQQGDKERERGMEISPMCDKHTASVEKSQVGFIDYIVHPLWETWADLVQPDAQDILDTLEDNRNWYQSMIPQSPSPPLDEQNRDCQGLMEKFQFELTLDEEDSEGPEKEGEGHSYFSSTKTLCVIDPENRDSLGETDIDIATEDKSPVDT

AUC(0-t) [1] [ng·h/mL]	Cmax [1] [ng/mL]	Tmax [1] [min]	AUC(0-t) [3] [ng·h/mL]	Cmax [3] [ng/mL]	Tmax [3] [min]	IC50 (PDE4B) [nM]	IC50 (PDE4D)/IC50 (PDE4B) (PDE4B)	AUC(0-t) [4] [ng·h/mL]	Cmax [4] [ng/mL]	Tmax [4] [min]	Structure (SMILES)	inhibition rate based on clinical score AUC [2] [%]	Clinical score (endpoint) [2]
1740	484	49.8	896	378	30	0.93	1.20	–	–	–	COc1ccc([C@@H]2CN(C(=O)[C@@H](O)CO)C[C@@]2(C)[C@@H](C)O)cc1OC1CN(c2ncc(C)cc2F)C1 [Compound 004, (S)-1-((3S,4S)-4-(3-((1-(3-fluoro-5-methylpyridin-2-yl)azetidin-3-yl)oxy)-4-methoxyphenyl)-3-((R)-1-hydroxyethyl)-3-methylpyrrolidin-1-yl)-2,3-dihydroxypropan-1-one]	67.5	3.3
1690	689	15	332	125	30	1.17	3.37	44400	13800	105	COc1ccc([C@@H]2CN(C(=O)[C@@H](O)CO)C[C@@]2(C)[C@@H](C)O)cc1OC1CN(c2ccc(C)c(C)n2)C1 [Compound 007, (S)-1-((3S,4S)-4-(3-((1-(5,6-dimethylpyridin-2-yl)azetidin-3-yl)oxy)-4-methoxyphenyl)-3-((R)-1-hydroxyethyl)-3-methylpyrrolidin-1-yl)-2,3-dihydroxypropan-1-one]	77.2	3.1
1420	356	49.8	1050	316	30	2.31	0.46	–	–	–	COc1ccc([C@@H]2CN(C(=O)[C@@H](O)CO)C[C@@]2(C)[C@@H](C)O)cc1OC1CN(c2ccc(Cl)c(C)n2)C1 [Compound 011, (S)-1-((3S,4S)-4-(3-((1-(5-chloro-6-methylpyridin-2-yl)azetidin-3-yl)oxy)-4-methoxyphenyl)-3-((R)-1-hydroxyethyl)-3-methylpyrrolidin-1-yl)-2,3-dihydroxypropan-1-one]	49.3	4.8
423	159	55.2	237	142	15	2.1	0.20	3640	565	90	COc1ccc([C@@H]2CN(C(=O)[C@@H](O)CO)C[C@@]2(C)[C@@H](C)O)cc1OC1CN(c2ccc(C)cn2)C1 [Positive control compound, reference compound]	42.3	4.4
